Common to all, as to test: two-electrode voltage clamp, oocytes, G
What all share (type): cell-based

Assay [1] deals with Shaker KV channel (Shaker H4, Δ6-46; "WT Shaker KV channel") (Drosophila melanogaster, UniProt P08510, DEL6-46/L358R/R362Q).
For assay [2], the target named is T1, human M channel (hKV7.2/7.3) (Homo sapiens, UniProt O43525+O43526).
Assay [3] addresses Shaker KV channel (Shaker H4, Δ6-46; "WT Shaker KV channel") (Drosophila melanogaster, UniProt P08510, DEL6-46/R362Q).
For assay [4], the target named is T1, human M channel (hKV7.2/7.3). The conditions noted are these: 100 µM; pH 7.4, room temperature; not significant.

Where a name gives a salt, the structure may show the parent alone.

T1 sequence (O43526 whole entry): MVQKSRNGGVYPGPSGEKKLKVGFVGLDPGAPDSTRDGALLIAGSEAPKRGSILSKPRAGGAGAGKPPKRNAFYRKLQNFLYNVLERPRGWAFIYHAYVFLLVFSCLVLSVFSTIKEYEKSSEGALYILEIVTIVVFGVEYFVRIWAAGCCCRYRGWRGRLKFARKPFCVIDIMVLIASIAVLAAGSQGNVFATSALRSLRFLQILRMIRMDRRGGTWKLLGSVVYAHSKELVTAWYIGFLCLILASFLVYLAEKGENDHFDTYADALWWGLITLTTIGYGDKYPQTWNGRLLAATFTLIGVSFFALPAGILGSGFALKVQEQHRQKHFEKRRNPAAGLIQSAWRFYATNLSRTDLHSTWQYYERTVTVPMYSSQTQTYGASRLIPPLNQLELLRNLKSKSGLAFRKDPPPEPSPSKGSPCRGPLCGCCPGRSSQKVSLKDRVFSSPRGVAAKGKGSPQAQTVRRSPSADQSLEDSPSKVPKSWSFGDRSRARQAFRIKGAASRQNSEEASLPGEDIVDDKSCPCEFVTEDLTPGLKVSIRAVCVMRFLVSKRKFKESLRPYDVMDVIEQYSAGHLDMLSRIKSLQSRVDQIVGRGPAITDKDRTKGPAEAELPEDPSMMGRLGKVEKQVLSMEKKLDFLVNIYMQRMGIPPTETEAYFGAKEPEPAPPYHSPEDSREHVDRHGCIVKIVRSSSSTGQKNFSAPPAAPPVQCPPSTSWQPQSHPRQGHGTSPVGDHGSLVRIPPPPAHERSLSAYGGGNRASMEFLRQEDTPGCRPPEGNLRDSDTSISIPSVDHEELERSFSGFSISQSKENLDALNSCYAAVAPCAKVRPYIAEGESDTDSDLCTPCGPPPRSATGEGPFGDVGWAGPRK
T1 sequence (O43525 whole entry): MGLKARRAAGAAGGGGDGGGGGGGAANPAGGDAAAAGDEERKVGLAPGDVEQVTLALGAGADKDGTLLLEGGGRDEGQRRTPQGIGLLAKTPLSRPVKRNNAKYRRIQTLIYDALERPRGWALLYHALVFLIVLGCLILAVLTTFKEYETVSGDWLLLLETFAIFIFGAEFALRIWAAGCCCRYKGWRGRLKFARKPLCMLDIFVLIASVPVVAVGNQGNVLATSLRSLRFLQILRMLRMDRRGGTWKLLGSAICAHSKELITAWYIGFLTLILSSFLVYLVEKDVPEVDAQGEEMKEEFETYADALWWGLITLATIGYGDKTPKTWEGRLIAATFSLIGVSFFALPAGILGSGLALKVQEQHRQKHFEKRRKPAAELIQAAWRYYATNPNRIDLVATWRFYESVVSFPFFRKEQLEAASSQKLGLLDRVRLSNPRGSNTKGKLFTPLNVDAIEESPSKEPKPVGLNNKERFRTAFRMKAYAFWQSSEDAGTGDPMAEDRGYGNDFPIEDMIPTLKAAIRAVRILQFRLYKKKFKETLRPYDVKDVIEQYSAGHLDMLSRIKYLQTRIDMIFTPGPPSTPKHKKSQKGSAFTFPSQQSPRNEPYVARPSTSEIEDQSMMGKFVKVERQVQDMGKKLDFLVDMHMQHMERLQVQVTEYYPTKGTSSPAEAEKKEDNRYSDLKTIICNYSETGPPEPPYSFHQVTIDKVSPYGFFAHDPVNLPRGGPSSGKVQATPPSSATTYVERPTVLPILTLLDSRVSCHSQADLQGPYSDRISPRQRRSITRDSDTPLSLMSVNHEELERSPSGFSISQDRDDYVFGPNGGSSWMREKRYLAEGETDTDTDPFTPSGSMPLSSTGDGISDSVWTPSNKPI

In the case of `CC(C)c1ccc2c(c1)CC[C@H]1[C@](C)(COS(=O)(=O)O)CCC[C@]21C` [Wu161, ((1R,4aS,10aR)-7-isopropyl-1,4a-dimethyl-1,2,3,4,4a,9,10,10a-octahydrophenanthren-1-yl)methyl hydrogen sulfate], the EC50 was found to be 70 µM in assay [1], 62 ± 15 µM in assay [2] and 36 µM in assay [3]. Regarding `C[C@@]1(COS(=O)(=O)O)CCC[C@]2(C)c3cc(Cl)c(Cl)c(Cl)c3CC[C@@H]12` [Wu181, ((1R,4aS,10aR)-6,7,8-trichloro-1,4a-dimethyl-2,3,4,9,10,10a-hexahydrophenanthrene-1-yl)methyl hydrogen sulfate], a half-maximal effect in assay [2] (EC50) was put at 12 ± 3 µM. Take `CC(C)c1ccc2c(c1)CC[C@H]1[C@](C)(CNS(C)(=O)=O)CCC[C@]21C` [Wu110, N-(((1R,4aS,10aR)-7-isopropyl-1,4a-dimethyl-1,2,3,4,4a,9,10,10a-octahydrophenanthren-1-yl)methyl)methanesulfonamide]: in assay [4], the “ΔV ± SEM” value is “–1.5 ± 0.4 mV”.

What is called EC50 is the concentration giving half of the maximal effect. A low value points to higher potency in that assay.

The values are drawn from PMC5940250 (The Journal of General Physiology, 2018).
